Source: US10722505B2, “Substituted 2,4 diamino-quinoline as new anticancer agents” (GENOSCIENCE PHARMA, priority 2014, dated 2020)
Structures can show the parent of a compound that is named as a salt.

How the values were obtained:
[1] = system: MDA-MB-231 cell line; assay: CellTiter-Glo growth inhibition assay, MDA-MB-231; type: cell-based; details: Homo sapiens; MDA-MB-231, breast adenocarcinoma, 72 h
Procedure: (§1) All cell lines were maintained in medium containing 1% penicillin-streptomycin (Dutscher, P06-07100) and 10% Fetal Bovine Serum (Gibco, W3387L) except 20% for KG-1 cell line and PBMC, and cultured at 37° C. with 5% CO2.
(§2) HepG2, Huh7, HCT-116, MDA-MB-231 and A375 cell lines were cultured in Dulbecco's modified Eagle's medium (Dutscher, L0103).
(§3) Cell viability was measured using the CellTiter-Glo® luminescent cell viability assay as described by the manufacturer (Promega, Ref G7571) using an Infinite F200Pro luminometer (Tecan). Briefly, for adherent cells, cells were plated onto 96-well plates (white with clear bottom) in 90 μL of media per well and were allowed to grow overnight before the assay. For cells growing in suspension, cells were plated onto 96-well plates immediately before the assay.
(§4) Compounds were added at different concentrations to each well, and cell cultures were incubated for 72 h. Vehicle (H2O) was used as a control, and all compounds were tested in a constant percentage of H2O. After addition of 100 μL of CellTiter-Glo®, luminescence was measured using an Infinite F200Pro (Tecan). EC50 values were determined as the dose of compound required to reduce luminescent values to 50% of the signal obtained for untreated cell cultures. The experimental data were analyzed using a computer program, Graphpad Prism v5 (GraphPad Software, Inc. La Jolla, Calif.). […]

[2] = system: CPP19 liver metastatic CRC patient-derived cells; assay: CellTiter-Glo growth inhibition, liver metastatic CRC patient-derived cells CPP19; type: cell-based; details: Homo sapiens; CPP19, 72 h
From the text: Patient derived liver metastasis cells (CPP19, 30, 36 and CPP45—see table 1 for clinical descriptions) were maintained in complete DMEM (Gibco) with 10% FBS. Cells were obtained from biopsies provided by CHU-Caremeau (Nimes, France) within an approved protocol. Signed informed consents were obtained from patients prior to samples acquisition in accordance with all ethical and legal aspects. Tumors were washed, minced into fragments (<2 mm^3) and digested with liberase H (0.26 U/mL, Roche) resuspended in Accumax (Sigma-Aldrich). After 2 hours at 37° C., cell suspension was filtered through a […] to obtain a single cell suspension and plated in DMEM medium, supplemented with FBS, glutamine, antibiotics and non-essential aminoacids. When a monolayer of patient-derived tumor cells was formed, cells were detached using trypsin/EDTA and resuspended in DMEM with 10% FBS (for adherent cells) or defined M11 media (for sphere formation). Cells were cultured in a humidified atmosphere at 37° C. and 5% CO2.
Cells were plated at 10^4 cells per well in P96 well plates in DMEM with 10% FBS. After 24 hours, cells were treated with compound 2-3 and cell viability was assessed 72 h post-treatment by CellTiter-Glo® Luminescent Cell Viability Assay (Promega). EC50 were calculated using GraphPad Prism Software v6 (Graphpad Software, Inc La Jolla, Calif.). […]

[3] = system: ALDH+ (CSC) population of MOLM-14 cell line; assay: Aldefluor kit assay, ALDH+ compartment in MOLM-14; type: cell-based, human; details: 72 h, control = 100
From the text: Analysis of the of aldehyde dehydrogenase (ALDH) compartment and high activity level of aldehyde dehydrogenase activity (ALDH+) was used to detect tumor initiating cells (cancer stem cells, CSC) population. The Aldefluor™ kit assay (StemCell Technologies, 01700) allowed to assess the activity of drugs on CSC cells like in a MOLM-14 acute myeloid leukemia cell line population (ref: Storms, R. W., Trujillo, A. P., Springer, J. B., Shah, L., Colvin, O. M., Ludeman, S. M., & Smith, C. (1999). Isolation of primitive human hematopoietic progenitors on the basis of aldehyde dehydrogenase activity. Proceedings of the National Academy of Sciences, 96(16), 9118-9123). The Aldefluor™ kit assay was used according to the procedure described by the manufacturer. Briefly, MOLM-14 cell line was cultured in MEM alpha medium supplemented with 10% v/v Fetal Bovine Serum, 1% Penicillin-Streptomycin and maintained at 37° C. with 5% CO2. 5·10^5 cells were used in this assay. Each compound was added at different concentrations (see table 8), and cell cultures were incubated for 72 h. Vehicle (H2O) was used as a control, and all compounds were tested in a constant percentage of vehicle. Cells obtained from cell culture were incubated for 45 minutes at 37° C. with Aldefluor™ buffer assay containing the Bodipy™-aminoacetaldehyde, a fluorescent ALDH aldehyde substrate. ALDH converts the fluorescent substrate BAAA to the Bodipy™-aminoacetic acid (BAA) which is retained in the cell. An active efflux inhibitor is present in the Adelfluor™ assay buffer in order to avoid the active efflux from the cell of the substrate product ALDH dependent converted BAA. The fluorescent signal is directly proportional to the ALDH activity in the cells and is measured by flow cytometry. A negative control is used to measure the background fluorescence level. For such purpose, 4-(N,N-diethylamino)-benzaldehyde (DEAB) was used as selective ALDH inhibitor. A viability cell count was performed using LIVE/DEAD® Fixable Far Red Dead Cell Stain Kit (Invitrogen). The experimental data are analyzed using a computer program, Graphpad Prism v5 (GraphPad Software, Inc. La Jolla, Calif.) and EC50 values were determined as the dose of compound required to reduce absorbance values to 50% of the signal obtained for vehicle treated cell cultures.

[4] = system: Huh-7 cell line; assay: CellTiter-Glo growth inhibition assay, Huh-7; type: cell-based; details: Homo sapiens; Huh-7, hepatocellular carcinoma, 72 h
Procedure: as §1, §2, §3, §4

[5] = system: ARPE-19 cell line; assay: CellTiter-Glo growth inhibition assay, ARPE-19; type: cell-based; details: ARPE-19, human retinal pigmented epithelium, 72 h
Procedure: as §1
ARPE-19 cell line was cultured in DMEM:F12 medium (Dutscher, L0093).
as §3, §4

EC50 [1]: 2 µM
EC50 [4]: 1.7 µM
SMILES: CC(C)(C)NC1CCN(c2cc(NCc3ccc(Cl)cc3)nc3ccccc23)CC1 [Compound 2-3, 2-(4-chlorobenzylamino)-4-(4-tert-butylaminopiperidin-1-yl)-quinoline hydrochloride salt]
EC50 [2]: 1.88 µM
ALdefluor positive CSCs (%) ([3]; MOLM-14, 2.5 μM): 100%
ALdefluor positive CSCs (%) ([3]; MOLM-14, 5.0 μM): 80%
ALdefluor positive CSCs (%) ([3]; MOLM-14, 7.5 μM): 20%
EC50 [5]: ~6.9 µM
